Earlier results on one compound are cited in US20070105828A1, “Novel polymorph form M of mifepristone and process for its preparation” (Glenmark Pharmaceuticals Limited, priority 2005, published 2007).

This data set deals with glucocorticoid receptor (Homo sapiens, UniProt P04150). The following applies: relative to dexamethasone; background statement.
Chain of glucocorticoid receptor (P04150 whole entry, species assumed): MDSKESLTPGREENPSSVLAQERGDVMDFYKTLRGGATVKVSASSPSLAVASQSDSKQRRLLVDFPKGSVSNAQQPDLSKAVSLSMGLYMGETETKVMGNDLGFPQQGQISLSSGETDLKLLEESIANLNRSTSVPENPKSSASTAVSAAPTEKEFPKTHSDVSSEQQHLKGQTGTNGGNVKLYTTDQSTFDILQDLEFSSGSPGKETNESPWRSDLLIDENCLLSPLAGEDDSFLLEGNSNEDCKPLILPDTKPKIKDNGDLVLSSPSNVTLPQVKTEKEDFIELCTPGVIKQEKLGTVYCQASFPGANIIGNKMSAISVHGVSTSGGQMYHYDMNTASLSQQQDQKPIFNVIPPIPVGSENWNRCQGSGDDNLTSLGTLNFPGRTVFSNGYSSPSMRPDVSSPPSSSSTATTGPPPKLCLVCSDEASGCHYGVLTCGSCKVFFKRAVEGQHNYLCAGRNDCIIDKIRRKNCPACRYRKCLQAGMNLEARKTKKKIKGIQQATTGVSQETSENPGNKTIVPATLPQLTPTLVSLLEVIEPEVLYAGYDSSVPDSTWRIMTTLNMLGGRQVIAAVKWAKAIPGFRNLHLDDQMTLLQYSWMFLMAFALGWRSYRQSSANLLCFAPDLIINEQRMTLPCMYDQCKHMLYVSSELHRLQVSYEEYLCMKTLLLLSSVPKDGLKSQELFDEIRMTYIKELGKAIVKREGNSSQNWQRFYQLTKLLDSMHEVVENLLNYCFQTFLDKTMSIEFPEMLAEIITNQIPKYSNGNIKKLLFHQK

With `CC#C[C@]1(O)CC[C@H]2[C@@H]3CCC4=CC(=O)CCC4=C3[C@@H](c3ccc(N(C)C)cc3)C[C@@]21C` [Mifepristone, (11β,17β)-11-[4-(N,N-dimethylamino)phenyl]-17-hydroxy-17-(1-propynyl)estra-4,9-diene-3-one], the “affinity for the glucocorticoid receptor compared with dexamethasone” value was “three times greater than that of dexamethasone”.
